Results reported in US10723728B2, “Prodrugs of Nh-acidic compounds” (ALKERMES PHARMA IRELAND LIMITED, priority 2009, dated 2020).

Experiments:
[1] = Pharmacokinetic evaluation of prodrugs in rats following intramuscular injection; type: in vivo, Male Sprague-Dawley rats; settings: rat, IM injection
Protocol: Male Sprague-Dawley rats (Charles River Laboratories, Wilmington, Mass.) were obtained. Approximately 24 rats were used in each study. Rats were approximately 350-375 g at time of arrival. Rats were housed 2 per cage with ad libitum chow and water. Environmental conditions in the housing room: 64-67 OF, 30% to 70% relative humidity, and 12:12-h light:dark cycle. All experiments were approved by the institutional animal care and use committee.
(§1) Rats were dosed IM by means of a 25 gauge, ⅝ inch needle with 1 cc syringe 0.3 mL suspension was withdrawn from the vial containing the test compound (see Table E). The […] was injected in the muscles of the hind limb after anesthesia with isoflourane. Blood samples were collected via a lateral tail vein after brief anesthesia with Isoflurane. A 27½-G needle and 1 cc syringe without an anticoagulant was used for the blood collection. Approximately 350 μL of whole blood was collected at each sampling time-point of 6 hours, 24 hours and 2, 5, 7, 9, 12, 14, 21, 28, 35 days after administration. Once collected, whole blood was immediately transferred to tubes containing K2 EDTA, inverted 10-15 times and immediately placed on ice. The tubes were centrifuged for 2 minutes at >14,000 g's (11500 RPMs using Eppendorf Centrifuge 5417C, F45-30-11 rotor) at room temperature to separate plasma. Plasma samples were transferred to labeled plain tubes (MICROTAINER®) and stored frozen at <−70° C.
(§2) Drug concentrations in plasma samples were analyzed by liquid chromatography-mass spectroscopy using appropriate parameters for each compound. Half-life, volume of distribution, clearance, maximal concentration, and AUC were calculated by using WinNonlin Version 5.2_software (Pharsight, St. Louis, Mo.).

[2] = system: D-Amphetamine-induced locomotion; assay: Pharmacodynamic study in amphetamine-induced locomotion model; settings: D-AMPH 1.5 mg/kg IP
[3] = Pharmacokinetic study for pioglitazone, Compounds 1002 and 1008; type: in vivo, rats; settings: rat, intramuscular; pioglitazone prodrug, crystalline material in 2% CMC, 0.2% Tween 20, PBS buffer pH 6.7; dose 67 mg/kg in table
Protocol: as §1, §2
PK profile of compounds 1002 and 1008 was compared to pioglitazone using a similar model as described above. 20 mg of pioglitazone or 20 mg equivilant of pioglitazone prodrug was administered intramuscularly.

[4] = crystalline suspension or oil emulsion
[5] = oral oil solution (PO), 0.66, 10 and 20 mg/rat
[6] = solution in ethyl oleate, dose (mg/kg)
[7] = PO, at the higher dose of 20 mg

| Compound | AUC0-14 [1, 4] | AUC0-T [1, 4] | further results |
| --- | --- | --- | --- |
| CC(=O)OCN1C(=O)CCc2ccc(OCCCCN3CCN(c4cccc(Cl)c4Cl)CC3)cc21 [Compound 1, (7-(4-(4-(2,3-dichlorophenyl)piperazin-1-yl)butoxy)-2-oxo-3,4-dihydroquinolin-1(2H)-yl)methyl acetate] | 1673 ng·days/mL | 1938 ng·days/mL | – |
| CCCC(=O)OCN1C(=O)CCc2ccc(OCCCCN3CCN(c4cccc(Cl)c4Cl)CC3)cc21 [Compound 2, (7-(4-(4-(2,3-dichlorophenyl)piperazin-1-yl)butoxy)-2-oxo-3,4-dihydroquinolin-1(2H)-yl)methyl butyrate] | 1016.9 ng·days/mL | 1139.8 ng·days/mL | – |
| CCCCCC(=O)OCN1C(=O)CCc2ccc(OCCCCN3CCN(c4cccc(Cl)c4Cl)CC3)cc21 [Compound 4, (7-(4-(4-(2,3-dichlorophenyl)piperazin-1-yl)butoxy)-2-oxo-3,4-dihydroquinolin-1(2H)-yl)methyl hexanoate] | 1455.4 ng·days/mL | 1678 ng·days/mL | dose dependence of inhibition of distance travelled [2, 5]: did not appear to be dose dependent; inhibition of increase in total distance traveled caused by D-AMPH [2, 5]: significantly inhibited the increases in distance traveled caused by D-AMPH |
| CCCCCCCC(=O)OCN1C(=O)CCc2ccc(OCCCCN3CCN(c4cccc(Cl)c4Cl)CC3)cc21 [Compound 5, (7-(4-(4-(2,3-dichlorophenyl)piperazin-1-yl)butoxy)-2-oxo-3,4-dihydroquinolin-1(2H)-yl)methyl octanoate] | 1728.6 ng·days/mL | 1742 ng·days/mL | – |
| CCCCCCCCCC(=O)OCN1C(=O)CCc2ccc(OCCCCN3CCN(c4cccc(Cl)c4Cl)CC3)cc21 [Compound 6, (7-(4-(4-(2,3-dichlorophenyl)piperazin-1-yl)butoxy)-2-oxo-3,4-dihydroquinolin-1(2H)-yl)methyl decanoate] | 1490.3 ng·days/mL | 1678.1 ng·days/mL | AUC0-14 [1, 6]: 67 ng·days/mL; AUC0-T [1, 6]: 327 ng·days/mL |
| CCCCCCCCCCCC(=O)OCN1C(=O)CCc2ccc(OCCCCN3CCN(c4cccc(Cl)c4Cl)CC3)cc21 [Compound 7, (7-(4-(4-(2,3-dichlorophenyl)piperazin-1-yl)butoxy)-2-oxo-3,4-dihydroquinolin-1(2H)-yl)methyl dodecanoate] | 512.0 ng·days/mL | 1169.5 ng·days/mL | inhibition of increase in total distance traveled caused by D-AMPH [2, 7]: did appear to significantly inhibit increases in distance traveled caused by D-AMPH |
| CCCCCCCCCCCCCCCC(=O)OCN1C(=O)CCc2ccc(OCCCCN3CCN(c4cccc(Cl)c4Cl)CC3)cc21 [Compound 10, (7-(4-(4-(2,3-dichlorophenyl)piperazin-1-yl)butoxy)-2-oxo-3,4-dihydroquinolin-1(2H)-yl)methyl palmitate] | 302 ng·days/mL | 786.6 ng·days/mL | – |
| O=C(OCN1C(=O)CCc2ccc(OCCCCN3CCN(c4cccc(Cl)c4Cl)CC3)cc21)c1ccccc1 [Compound 31, (7-(4-(4-(2,3-dichlorophenyl)piperazin-1-yl)butoxy)-2-oxo-3,4-dihydroquinolin-1(2H)-yl)methyl benzoate] | 819.0 ng·days/mL | 997 ng·days/mL | – |
| CC(C)C(=O)OCN1C(=O)CCc2ccc(OCCCCN3CCN(c4cccc(Cl)c4Cl)CC3)cc21 [Compound 32, (7-(4-(4-(2,3-dichlorophenyl)piperazin-1-yl)butoxy)-2-oxo-3,4-dihydroquinolin-1(2H)-yl)methyl isobutyrate] | 1334.4 ng·days/mL | 1486 ng·days/mL | – |
| O=C(OCN1C(=O)CCc2ccc(OCCCCN3CCN(c4cccc(Cl)c4Cl)CC3)cc21)C1CCC1 [Compound 34, (7-(4-(4-(2,3-dichlorophenyl)piperazin-1-yl)butoxy)-2-oxo-3,4-dihydroquinolin-1(2H)-yl)methyl cyclobutanecarboxylate] | 2050 ng·days/mL | 2095.8 ng·days/mL | – |
| CNC(=O)OCN1C(=O)CCc2ccc(OCCCCN3CCN(c4cccc(Cl)c4Cl)CC3)cc21 [Compound 47, (7-(4-(4-(2,3-dichlorophenyl)piperazin-1-yl)butoxy)-2-oxo-3,4-dihydroquinolin-1(2H)-yl)methyl methylcarbamate] | 113 ng·days/mL | 176 ng·days/mL | inhibition of increase in total distance traveled caused by D-AMPH [2, 7]: did appear to significantly inhibit increases in distance traveled caused by D-AMPH |
| CC(C)OC(=O)OCN1C(=O)CCc2ccc(OCCCCN3CCN(c4cccc(Cl)c4Cl)CC3)cc21 [Compound 48, (7-(4-(4-(2,3-dichlorophenyl)piperazin-1-yl)butoxy)-2-oxo-3,4-dihydroquinolin-1(2H)-yl)methyl isopropyl carbonate] | 2238 ng·days/mL | 2264.6 ng·days/mL | – |
| O=C(OCN1C(=O)CCc2ccc(OCCCCN3CCN(c4cccc(Cl)c4Cl)CC3)cc21)N1CCOCC1 [Compound 49, (7-(4-(4-(2,3-dichlorophenyl)piperazin-1-yl)butoxy)-2-oxo-3,4-dihydroquinolin-1(2H)-yl)methyl morpholine-4-carboxylate] | 152 ng·days/mL | 199.7 ng·days/mL | – |
| CCOC(=O)OCN1C(=O)CCc2ccc(OCCCCN3CCN(c4cccc(Cl)c4Cl)CC3)cc21 [Compound 79, (7-(4-(4-(2,3-dichlorophenyl)piperazin-1-yl)butoxy)-2-oxo-3,4-dihydroquinolin-1(2H)-yl)methyl ethyl carbonate] | 907.4 ng·days/mL | 940 ng·days/mL | AUC0-14 [1, 6]: 954 ng·days/mL |
| CCCCCCOC(=O)OCN1C(=O)CCc2ccc(OCCCCN3CCN(c4cccc(Cl)c4Cl)CC3)cc21 [Compound 81, (7-(4-(4-(2,3-dichlorophenyl)piperazin-1-yl)butoxy)-2-oxo-3,4-dihydroquinolin-1(2H)-yl)methyl hexyl carbonate] | – | – | AUC0-14 [1, 6]: 584 ng·days/mL |
| CCCCCCCCCCOC(=O)OCN1C(=O)CCc2ccc(OCCCCN3CCN(c4cccc(Cl)c4Cl)CC3)cc21 [Compound 82, decyl (7-(4-(4-(2,3-dichlorophenyl)piperazin-1-yl)butoxy)-2-oxo-3,4-dihydroquinolin-1(2H)-yl)methyl carbonate] | – | – | AUC0-14 [1, 6]: 204 ng·days/mL |
| CC(C)CCOC(=O)OCN1C(=O)CCc2ccc(OCCCCN3CCN(c4cccc(Cl)c4Cl)CC3)cc21 [Compound 85, (7-(4-(4-(2,3-dichlorophenyl)piperazin-1-yl)butoxy)-2-oxo-3,4-dihydroquinolin-1(2H)-yl)methyl isopentyl carbonate] | 1233.9 ng·days/mL | 1348 ng·days/mL | – |
| CCCC(=O)OCN1C(=O)SC(Cc2ccc(OCCc3ccc(CC)cn3)cc2)C1=O (stereo not shown) [Compound 1002, (5-(4-(2-(5-ethylpyridin-2-yl)ethoxy)benzyl)-2,4-dioxothiazolidin-3-yl)methyl butyrate] | – | – | AUC0-14 [3]: 5350 ng·days/mL; AUC0-T [3]: 5972 ng·days/mL |
| CCCCCCCCCCCCCCCC(=O)OCN1C(=O)SC(Cc2ccc(OCCc3ccc(CC)cn3)cc2)C1=O (stereo not shown) [Compound 1008, (5-(4-(2-(5-ethylpyridin-2-yl)ethoxy)benzyl)-2,4-dioxothiazolidin-3-yl)methyl palmitoate] | – | – | AUC0-14 [3]: 5000 ng·days/mL; AUC0-T [3]: 6763 ng·days/mL |
